The values that follow come from patent publication US6340741B1, “Potent genetic switch allowing regulated gene expression in eukaryotic cells” (University of Lausanne, priority 1998, dated 2002).

The assay concerns p5xGTTI-Luc+ luciferase reporter in BHK 21 cells. Nature of the assay: Repression of luciferase reporter activated by constitutive GAL4-VP16, transient transfection of BHK 21 cells (Example 2). The following applies: 100 ng/ml dox. The class given is cell-based, hamster. Here is the method:
Baby hamster kidney 21 (BHK 21) cells were cultivated in DMEM (Gibco-BRL) supplemented with 10% FCS (Gibco-BRL). For transfectiors, cells were seeded in 24 well plates at about 40% confluency and allowed to attach to the surface. After washing with PBS, cells were exposed to the transfection mix for 4 hours. Thereafter, the transfection mix was replaced by medium which contained, where indicated, 100 ng/ml doxycycline hydrochloride (Sigma #D9891). Generally, medium was replaced every 24 hours and cells were harvested 48 hours post-transfection.
For luciferase and β-galactosidase measurements, cell extracts were prepared as follows. […] After a delay of 2 sec light emission was measured for 2 sec.
Colorimetric determination of β-galactosidase activity was performed by adding 150 μl CPRG buffer (60 mM Na2HPO4 7 H2O, 40 mM NaH2PO4, 10 mM KCl, 1 mM MgSO4, 50 mM β-mercaptoethanol) and 20 μl CPRG solution (Boehringer Mannheim #884308, 4 mg/ml in H2O) to the remaining 30 μl cell extract in the 96 well plate. […] Absorbance was measured at 575 nm in a plate reader (Spectramax 340, Molecular Devices) and samples were normalized to wells in which lysis buffer was assayed.
Relative light units were calculated by normalizing luciferase for β-galactosidase activity. […]
(Reporter assays use an easily measured gene product as a stand-in for the process of interest.)

`C[C@H]1c2cccc(O)c2C(=O)C2=C(O)[C@]3(O)C(=O)C(C(N)=O)=C(O)[C@@H](N(C)C)[C@@H]3[C@@H](O)[C@@H]21.Cl` [dox, doxycycline hydrochloride]: the “effect of addition of the dox ligand on repression” value is listed as “abolished the repression”.
